Measured values reported in publication PMC9138505, “Small Molecule 20S Proteasome Enhancer Regulates MYC Protein Stability and Exhibits Antitumor Activity in Multiple Myeloma” (Biomedicines, 2022).
Values joined by “and” are separate entries in the source; they are usually repeats but may differ in a detail not shown here. Identical values can stand only once.

Tested on: RPMI-8226 cells
Experiment: Gene expression profiling, NanoString nCounter PanCancer Pathways Panel, ROSALIND analysis
Format: cell-based, human
Conditions: RPMI-8226, TCH-165 samples 1-3
Protocol: RPMI-8226 cells were treated with vehicle or TCH-165 (10 μM) for 4 h. Total RNA was obtained using the mirVana miRNA Isolation Kit, with phenol (Thermofisher Scientific; AM1560; Waltham, MA, USA). Total RNA was quantified by Qubit (Thermofisher Scientific; Q32855; Waltham, MA, USA). and gene expression was evaluated against the nCounter® PanCancer Pathways Panel^TM according to the standard NanoString protocol.
Data were analyzed by ROSALIND® [36] with a hyperscale architecture developed by ROSALIND, Inc. (San Diego, CA, USA). Normalization, fold changes and p-values were calculated using criteria provided by NanoString. ROSALIND follows the nCounter® Advanced Analysis protocol of dividing counts within a lane by the geometric mean of the normalizer probes from the same lane. Housekeeping probes to be used for normalization are selected based on the geNorm algorithm, as implemented in the NormqPCR R library. Fold changes and p-values are calculated using the fast method as described in the nCounter Advanced Analysis 2.0 User Manual. The p-value adjustment is performed using the Benjamini–Hochberg method of estimating false discovery rates (FDR). Clustering of genes for the final heatmap of differentially expressed genes was done using the PAM (Partitioning Around Medoids) method using the fpc R library. Hypergeometric distribution was used to analyze the enrichment of pathways, gene ontology, domain structure and other ontologies. The topGO R library was used to determine local similarities and dependencies between GO terms in order to perform Elim pruning correction. Several database sources were referenced for enrichment analysis, including Interpro [40], NCBI [41], MSigDB [42, 43], REACTOME [44], WikiPathways. Enrichment was calculated relative to a set of background genes relevant to the experiment.

CCOC(=O)[C@]1(c2ccccc2)N=C(c2ccc(OC)cc2)N(Cc2ccccc2)[C@@H]1c1ccc(NCc2ccccc2)cc1 [TCH-165]
FGF2 normalized gene expression: 5.208 and 4.324 and 4.613
FGF3 normalized gene expression: 4.401 and 4.524 and 4.693
FGF4 normalized gene expression: 5.044 and 4.927 and 4.613
FGF5 normalized gene expression: 2.723 and 2.569 and 3.0682
FGF6 normalized gene expression: 3.86 and 3.891 and 3.184
FGF7 normalized gene expression: 4.86 and 4.996 and 4.653
FGF8 normalized gene expression: 4.723 and 3.569 and 3.805
FGF9 normalized gene expression: 7.044 and 7.045 and 7.083
FGF10 normalized gene expression: 5.308 and 4.614 and 4.975
FGF11 normalized gene expression: 5.53 and 5.154 and 4.975
FGF12 normalized gene expression: 3.86 and 4.7789 and 4.769
FGF13 normalized gene expression: 8.993 and 9.004 and 8.947
FGF14 normalized gene expression: 4.86 and 4.891 and 4.769
FGF16 normalized gene expression: 4.793 and 4.996 and 4.731
FGF17 normalized gene expression: 2.723 and 3.154 and 3.653
FGF18 normalized gene expression: 4.101 and 2.3768 and 3.39
FGF19 normalized gene expression: 3.86 and 4.029 and 4.1271
FGF20 normalized gene expression: 4.571 and 4.817 and 4.876
FGF21 normalized gene expression: 5.955 and 5.636 and 5.712
FGF22 normalized gene expression: 5.827 and 5.569 and 5.098
FGF23 normalized gene expression: 5.208 and 5.124 and 5.341
FGFR1 normalized gene expression: 4.488 and 4.324 and 4.528
FGFR2 normalized gene expression: 6.015 and 5.836 and 5.461
FGFR3 normalized gene expression: 5.488 and 4.614 and 4.9095
FGFR4 normalized gene expression: 4.401 and 3.891 and 4.1271
FIGF normalized gene expression: 4.101 and 3.817 and 2.943
FLNA normalized gene expression: 9.475 and 9.497 and 9.54
FLNC normalized gene expression: 5.924 and 5.979 and 5.528
FLT1 normalized gene expression: 3.401 and 4.029 and 3.653
FLT3 normalized gene expression: 3.401 and 2.739 and 3.0682
FN1 normalized gene expression: 13.4955 and 13.457 and 13.4134
FOS normalized gene expression: 7.234 and 7.603 and 7.613
FOSL1 normalized gene expression: 5.892 and 5.759 and 5.712
FOXL2 normalized gene expression: 4.924 and 4.569 and 4.528
FOXO4 normalized gene expression: 6.986 and 7.124 and 6.787
FST normalized gene expression: 5.308 and 5.093 and 5.184
FUBP1 normalized gene expression: 10.9203 and 10.8641 and 10.8501
FUT8 normalized gene expression: 8.45 and 8.328 and 8.338
FZD2 normalized gene expression: 4.571 and 4.817 and 5.211
FZD3 normalized gene expression: 7.195 and 7.427 and 7.378
FZD7 normalized gene expression: 4.986 and 4.7789 and 4.805
FZD8 normalized gene expression: 4.401 and 3.569 and 4.1271
FZD9 normalized gene expression: 5.208 and 4.029 and 4.341
FZD10 normalized gene expression: 4.86 and 3.962 and 4.437
GADD45A normalized gene expression: 9.132 and 9.301 and 9.248
GADD45B normalized gene expression: 7.884 and 7.9093 and 7.914
GADD45G normalized gene expression: 4.101 and 4.569 and 4.693
GAS1 normalized gene expression: 5.259 and 4.029 and 4.653
GATA1 normalized gene expression: 5.156 and 4.476 and 4.437
GATA2 normalized gene expression: 4.924 and 4.476 and 4.0068
GATA3 normalized gene expression: 2.986 and 4.029 and 4.1271
GHR normalized gene expression: 4.208 and 4.657 and 4.876
GLI1 normalized gene expression: 4.793 and 4.996 and 5.1271
GLI3 normalized gene expression: 7.234 and 6.709 and 6.884
GNA11 normalized gene expression: 6.86 and 6.739 and 6.602
GNAQ normalized gene expression: 4.86 and 5.324 and 4.653
GNAS normalized gene expression: 10.7886 and 10.9336 and 10.8358
GNG4 normalized gene expression: 4.208 and 4.569 and 4.9095
GNG7 normalized gene expression: 5.488 and 5.452 and 4.975
GNGT1 normalized gene expression: 4.86 and 4.699 and 4.341
GPC4 normalized gene expression: 4.986 and 4.324 and 4.238
GRB2 normalized gene expression: 11.2288 and 11.2361 and 11.1936
GRIA3 normalized gene expression: 5.101 and 4.029 and 4.39
GRIN1 normalized gene expression: 6.182 and 5.836 and 5.975
GRIN2A normalized gene expression: 5.955 and 5.678 and 5.437
GRIN2B normalized gene expression: 3.401 and 3.476 and 2.943
GSK3B normalized gene expression: 8.384 and 8.242 and 8.36
GTF2H3 normalized gene expression: 9.358 and 9.284 and 9.271
GZMB normalized gene expression: 4.649 and 4.029 and 4.5707
H2AFX normalized gene expression: 9.249 and 8.96 and 9.049
H3F3A normalized gene expression: 13.5139 and 13.5375 and 13.5217
HDAC1 normalized gene expression: 9.665 and 9.611 and 9.679
HDAC2 normalized gene expression: 11.0236 and 10.9286 and 10.9442
HDAC4 normalized gene expression: 6.986 and 6.798 and 6.778
HDAC5 normalized gene expression: 8.03 and 8.069 and 8.049
HDAC6 normalized gene expression: 7.658 and 7.699 and 7.643
HELLS normalized gene expression: 9.578 and 9.451 and 9.503
HES1 normalized gene expression: 4.924 and 4.855 and 4.613
HGF normalized gene expression: 8.129 and 8.033 and 8.145
HHEX normalized gene expression: 5.986 and 6.012 and 5.943
HIST1H3B normalized gene expression: 15.271 and 14.9487 and 14.86
HIST1H3G normalized gene expression: 14.1552 and 13.7784 and 13.7341
HIST1H3H normalized gene expression: 15.3267 and 14.9451 and 14.9056
HMGA1 normalized gene expression: 10.7304 and 10.6516 and 10.6817
HMGA2 normalized gene expression: 4.86 and 4.657 and 4.0068
HNF1A normalized gene expression: 5.53 and 4.962 and 4.769
HOXA9 normalized gene expression: 5.355 and 5.242 and 5.291
HOXA10 normalized gene expression: 5.61 and 5.592 and 5.437
HOXA11 normalized gene expression: 4.986 and 5.093 and 5.414
HPGD normalized gene expression: 4.208 and 4.3768 and 5.0068
HRAS normalized gene expression: 7.087 and 7.184 and 7.0682
HSP90B1 normalized gene expression: 11.9809 and 12.0196 and 12.0083
HSPA1A normalized gene expression: 6.793 and 6.667 and 6.528
HSPA2 normalized gene expression: 5.259 and 4.962 and 5.39
HSPA6 normalized gene expression: 8.169 and 8.132 and 8.184
HSPB1 normalized gene expression: 10.6744 and 10.4282 and 10.4272
IBSP normalized gene expression: 4.101 and 4.427 and 3.5707
ID1 normalized gene expression: 7.234 and 7.077 and 7.39
ID2 normalized gene expression: 8.252 and 8.085 and 8.156
ID4 normalized gene expression: 5.308 and 4.962 and 4.5707
IDH1 normalized gene expression: 8.037 and 7.944 and 8.087
IDH2 normalized gene expression: 10.7214 and 10.6097 and 10.5399
IFNA2 normalized gene expression: 4.793 and 5.029 and 4.876
IFNA7 normalized gene expression: 4.208 and 3.891 and 3.653
IFNA17 normalized gene expression: 5.445 and 5.817 and 5.712
IFNG normalized gene expression: 4.723 and 3.739 and 3.731
IGF1R normalized gene expression: 9.24 and 9.089 and 9.141
IGF1 normalized gene expression: 5.686 and 5.427 and 5.0682
IGFBP3 normalized gene expression: 11.5972 and 11.5942 and 11.578
IKBKB normalized gene expression: 7.271 and 7.249 and 6.85
IKBKG normalized gene expression: 8.189 and 8.037 and 8.156
IL1A normalized gene expression: 4.208 and 4.154 and 4.0682
IL1B normalized gene expression: 5.044 and 4.427 and 4.805
IL1R1 normalized gene expression: 4.723 and 4.27 and 4.1271
IL1RAP normalized gene expression: 6.044 and 5.927 and 6.0682
IL2RA normalized gene expression: 4.571 and 4.27 and 4.291
IL2RB normalized gene expression: 4.101 and 3.891 and 4.437
IL3RA normalized gene expression: 6.378 and 6.614 and 6.197
IL3 normalized gene expression: 5.61 and 4.996 and 5.211
IL5RA normalized gene expression: 6.182 and 6.2133 and 6.211
IL6R normalized gene expression: 6.156 and 6.045 and 5.926
IL6 normalized gene expression: 4.308 and 3.476 and 3.0682
IL7R normalized gene expression: 4.571 and 4.569 and 4.528
IL7 normalized gene expression: 4.101 and 4.739 and 4.805
IL10 normalized gene expression: 5.892 and 6.27 and 6.238
IL11RA normalized gene expression: 4.649 and 4.476 and 3.291
IL11 normalized gene expression: 4.208 and 4.324 and 4.341
IL12A normalized gene expression: 2.986 and 2.739 and 2.943
IL12B normalized gene expression: 4.86 and 4.657 and 4.613
IL12RB2 normalized gene expression: 4.401 and 3.476 and 3.39
IL13RA2 normalized gene expression: 3.86 and 3.962 and 3.39
IL13 normalized gene expression: 3.986 and 4.699 and 4.653
IL15 normalized gene expression: 3.986 and 3.962 and 4.0682
IL19 normalized gene expression: 5.044 and 4.855 and 5.0068
IL20RA normalized gene expression: 4.101 and 3.739 and 4.0682
IL20RB normalized gene expression: 5.892 and 5.836 and 5.613
IL23A normalized gene expression: 6.355 and 5.979 and 6.038
IL24 normalized gene expression: 4.208 and 5.427 and 4.876
INHBA normalized gene expression: 4.793 and 4.569 and 4.0682
INHBB normalized gene expression: 5.53 and 5.927 and 5.75
IRAK2 normalized gene expression: 5.892 and 5.524 and 5.893
IRAK3 normalized gene expression: 5.156 and 5.029 and 4.805
IRS1 normalized gene expression: 5.308 and 4.996 and 4.805
ITGA2 normalized gene expression: 3.723 and 3.657 and 3.731
ITGA3 normalized gene expression: 7.115 and 6.979 and 6.693
ITGA6 normalized gene expression: 5.259 and 5.242 and 4.653
ITGA7 normalized gene expression: 4.208 and 4.154 and 4.943
ITGA8 normalized gene expression: 5.488 and 4.891 and 5.098
ITGA9 normalized gene expression: 4.86 and 4.996 and 4.437
ITGB3 normalized gene expression: 3.401 and 2.739 and 3.731
ITGB4 normalized gene expression: 5.308 and 5.184 and 5.0682
ITGB6 normalized gene expression: 5.571 and 5.2133 and 5.291
ITGB7 normalized gene expression: 14.1153 and 14.105 and 14.0545
ITGB8 normalized gene expression: 6.445 and 6.452 and 6.602
JAG1 normalized gene expression: 8.08 and 7.864 and 7.85
JAG2 normalized gene expression: 7.169 and 7.476 and 7.455
JAK1 normalized gene expression: 9.467 and 9.41 and 9.414
JAK2 normalized gene expression: 6.331 and 6.311 and 6.4021
JUN normalized gene expression: 8.667 and 8.646 and 8.78
KAT2B normalized gene expression: 7.955 and 8.18 and 8.102
KDM5C normalized gene expression: 9.094 and 8.985 and 8.924
KDM6A normalized gene expression: 4.401 and 4.029 and 3.943
KIT normalized gene expression: 5.101 and 4.739 and 4.528
KITLG normalized gene expression: 4.649 and 4.739 and 4.5707
KLF4 normalized gene expression: 4.308 and 4.996 and 4.769
KMT2D normalized gene expression: 8.115 and 8.314 and 8.228
KRAS normalized gene expression: 11.0766 and 10.9767 and 10.9365
LAMA3 normalized gene expression: 5.308 and 5.324 and 5.1271
LAMA5 normalized gene expression: 5.986 and 5.739 and 5.693
LAMB3 normalized gene expression: 6.234 and 6.169 and 6.1271
LAMB4 normalized gene expression: 4.401 and 4.029 and 3.731
LAMC2 normalized gene expression: 3.723 and 3.27 and 3.731
LAMC3 normalized gene expression: 5.649 and 4.996 and 4.693
LAT normalized gene expression: 5.723 and 5.927 and 5.366
LEF1 normalized gene expression: 3.86 and 2.891 and 2.291
LEFTY1 normalized gene expression: 5.723 and 4.855 and 5.0068
LEFTY2 normalized gene expression: 6.571 and 6.657 and 6.814
LEP normalized gene expression: 5.259 and 4.855 and 4.291
LEPR normalized gene expression: 6.401 and 5.817 and 6.378
LFNG normalized gene expression: 5.758 and 5.2133 and 4.805
LIF normalized gene expression: 5.259 and 5.029 and 5.156
